Test results taken from ChEMBL document CHEMBL4800729 (2021).
pKi: −log10 of the molar value.

What was measured:
[1] = molecular target: GABA-A receptor; anion channel; test: GPCRScan assay: inhibition of GABAA/BZP; format: protein-complex assay, Rattus norvegicus; parameters: radioligand conc. used [nm] 0.6 – 4.0, parental cells brain tissue
[2] = molecular target: Activated CDC42 kinase 1 (Homo sapiens) (UniProt Q07912); test: ACK1(h) Millipore kinase panel; conditions: Compound concentration 1.0 uM
[3] = molecular target: Tyrosine-protein kinase ABL2 (Homo sapiens) (UniProt P42684); test: Arg(h) Millipore kinase panel; conditions: Compound concentration 1.0 uM
Sequence of Tyrosine-protein kinase ABL2 (Homo sapiens) (P42684 whole entry): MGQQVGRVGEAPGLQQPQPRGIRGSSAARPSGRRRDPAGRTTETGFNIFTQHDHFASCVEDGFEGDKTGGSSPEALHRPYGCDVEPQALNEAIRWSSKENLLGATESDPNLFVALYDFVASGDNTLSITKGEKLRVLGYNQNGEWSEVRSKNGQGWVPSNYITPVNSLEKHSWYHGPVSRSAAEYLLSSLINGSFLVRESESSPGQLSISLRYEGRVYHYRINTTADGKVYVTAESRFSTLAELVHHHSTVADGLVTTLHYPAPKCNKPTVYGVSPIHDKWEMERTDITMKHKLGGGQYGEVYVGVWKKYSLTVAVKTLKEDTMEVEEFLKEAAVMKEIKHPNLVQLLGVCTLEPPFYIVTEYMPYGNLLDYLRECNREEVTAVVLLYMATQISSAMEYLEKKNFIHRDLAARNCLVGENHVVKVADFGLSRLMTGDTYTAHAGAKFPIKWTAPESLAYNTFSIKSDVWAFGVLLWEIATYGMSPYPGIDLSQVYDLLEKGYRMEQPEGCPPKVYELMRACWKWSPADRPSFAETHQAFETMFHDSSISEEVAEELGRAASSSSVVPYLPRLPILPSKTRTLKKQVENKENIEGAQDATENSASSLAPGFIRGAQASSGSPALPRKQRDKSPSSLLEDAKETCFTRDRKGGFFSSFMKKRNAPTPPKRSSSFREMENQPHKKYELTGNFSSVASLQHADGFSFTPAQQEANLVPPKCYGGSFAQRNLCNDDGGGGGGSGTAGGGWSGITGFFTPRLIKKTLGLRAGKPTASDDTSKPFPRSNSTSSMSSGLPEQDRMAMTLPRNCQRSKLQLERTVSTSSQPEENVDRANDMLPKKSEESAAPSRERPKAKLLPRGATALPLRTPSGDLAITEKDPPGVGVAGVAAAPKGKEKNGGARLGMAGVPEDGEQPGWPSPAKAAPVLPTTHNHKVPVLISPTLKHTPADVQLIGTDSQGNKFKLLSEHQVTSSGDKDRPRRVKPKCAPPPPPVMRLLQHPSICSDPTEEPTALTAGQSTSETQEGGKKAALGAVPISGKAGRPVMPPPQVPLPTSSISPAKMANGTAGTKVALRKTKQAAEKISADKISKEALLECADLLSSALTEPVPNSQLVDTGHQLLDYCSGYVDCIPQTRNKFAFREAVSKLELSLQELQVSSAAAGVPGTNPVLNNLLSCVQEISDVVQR

[4] = molecular target: Cyclin-dependent kinase 2/cyclin E (Homo sapiens) (UniProt P24864+P24941+O96020); test: CDK2/cyclinE(h) Millipore kinase panel; format: protein-complex assay; conditions: Compound concentration 1.0 uM
[5] = molecular target: Casein kinase I isoform gamma-2 (Homo sapiens) (UniProt P78368); test: CK1gamma2(h) Millipore kinase panel; conditions: Compound concentration 1.0 uM
[6] = molecular target: Dual specificity tyrosine-phosphorylation-regulated kinase 1A (Homo sapiens) (UniProt Q13627); test: DYRK1A(h) Millipore kinase panel; conditions: Compound concentration 1.0 uM
[7] = molecular target: Ephrin type-A receptor 1 (Homo sapiens) (UniProt P21709); test: EphA1(h) Millipore kinase panel; conditions: Compound concentration 1.0 uM
[8] = molecular target: Ephrin type-B receptor 3 (Homo sapiens) (UniProt P54753); test: EphB3(h) Millipore kinase panel; conditions: Compound concentration 1.0 uM
[9] = molecular target: Focal adhesion kinase 1 (Homo sapiens) (UniProt Q05397); test: FAK(h Millipore kinase panel; conditions: Compound concentration 1.0 uM
[10] = molecular target: Serine/threonine-protein kinase ICK (Homo sapiens) (UniProt Q9UPZ9); test: ICK(h) Millipore kinase panel; conditions: Compound concentration 1.0 uM
[11] = molecular target: Mitogen-activated protein kinase 8 (Homo sapiens) (UniProt P45983); test: JNK1alpha1(h) Millipore kinase panel; conditions: Compound concentration 1.0 uM
Sequence of Mitogen-activated protein kinase 8 (Homo sapiens) (P45983 whole entry): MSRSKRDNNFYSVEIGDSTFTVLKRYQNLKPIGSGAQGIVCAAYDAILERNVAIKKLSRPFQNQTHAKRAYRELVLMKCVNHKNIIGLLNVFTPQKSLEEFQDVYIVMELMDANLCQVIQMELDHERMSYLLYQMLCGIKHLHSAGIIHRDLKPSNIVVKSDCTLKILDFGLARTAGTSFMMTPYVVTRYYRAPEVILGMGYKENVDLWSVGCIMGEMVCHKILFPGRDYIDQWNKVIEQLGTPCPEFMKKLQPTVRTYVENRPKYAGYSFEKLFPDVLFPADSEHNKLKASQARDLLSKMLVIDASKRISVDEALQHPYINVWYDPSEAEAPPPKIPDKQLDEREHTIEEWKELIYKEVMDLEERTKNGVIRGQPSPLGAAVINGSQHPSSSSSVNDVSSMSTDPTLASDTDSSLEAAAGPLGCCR

[12] = molecular target: Mitogen-activated protein kinase kinase kinase kinase 5 (Homo sapiens) (UniProt Q9Y4K4); test: MAP4K5(h) Millipore kinase panel; conditions: Compound concentration 1.0 uM
[13] = molecular target: Dual specificity mitogen-activated protein kinase kinase 3 (Homo sapiens) (UniProt P46734); test: MKK3(h) Millipore kinase panel; conditions: Compound concentration 1.0 uM
[14] = molecular target: Serine/threonine-protein kinase 38 (Homo sapiens) (UniProt Q15208); test: NDR1(h) Millipore kinase panel; conditions: Compound concentration 1.0 uM
[15] = molecular target: NUAK family SNF1-like kinase 2 (Homo sapiens) (UniProt Q9H093); test: NUAK2(h) Millipore kinase panel; conditions: Compound concentration 1.0 uM
[16] = molecular target: Serine/threonine-protein kinase OSR1 (Homo sapiens) (UniProt O95747); test: OSR1(h) Millipore kinase panel; conditions: Compound concentration 1.0 uM
[17] = molecular target: Protein kinase C iota type (Homo sapiens) (UniProt P41743); test: PKCiota(h) Millipore kinase panel; conditions: Compound concentration 1.0 uM
[18] = molecular target: Serine/threonine-protein kinase PLK4 (Homo sapiens) (UniProt O00444); test: Plk4(h) Millipore kinase panel; conditions: Compound concentration 1.0 uM
[19] = molecular target: Mitogen-activated protein kinase 13 (Homo sapiens) (UniProt O15264); test: SAPK4(h) Millipore kinase panel; conditions: Compound concentration 1.0 uM
[20] = molecular target: Serine/threonine-protein kinase Sgk1 (Homo sapiens) (UniProt O00141); test: SGK(h) Millipore kinase panel; conditions: Compound concentration 1.0 uM
[21] = molecular target: Serine/threonine-protein kinase 25 (Homo sapiens) (UniProt O00506); test: STK25(h) Millipore kinase panel; conditions: Compound concentration 1.0 uM
[22] = molecular target: Serine/threonine-protein kinase 32C (Homo sapiens) (UniProt Q86UX6); test: STK32C(h) Millipore kinase panel; conditions: Compound concentration 1.0 uM
[23] = molecular target: Serine/threonine-protein kinase TAO1 (Homo sapiens) (UniProt Q7L7X3); test: TAO1(h) Millipore kinase panel; conditions: Compound concentration 1.0 uM
Sequence of Serine/threonine-protein kinase TAO1 (Homo sapiens) (Q7L7X3 whole entry): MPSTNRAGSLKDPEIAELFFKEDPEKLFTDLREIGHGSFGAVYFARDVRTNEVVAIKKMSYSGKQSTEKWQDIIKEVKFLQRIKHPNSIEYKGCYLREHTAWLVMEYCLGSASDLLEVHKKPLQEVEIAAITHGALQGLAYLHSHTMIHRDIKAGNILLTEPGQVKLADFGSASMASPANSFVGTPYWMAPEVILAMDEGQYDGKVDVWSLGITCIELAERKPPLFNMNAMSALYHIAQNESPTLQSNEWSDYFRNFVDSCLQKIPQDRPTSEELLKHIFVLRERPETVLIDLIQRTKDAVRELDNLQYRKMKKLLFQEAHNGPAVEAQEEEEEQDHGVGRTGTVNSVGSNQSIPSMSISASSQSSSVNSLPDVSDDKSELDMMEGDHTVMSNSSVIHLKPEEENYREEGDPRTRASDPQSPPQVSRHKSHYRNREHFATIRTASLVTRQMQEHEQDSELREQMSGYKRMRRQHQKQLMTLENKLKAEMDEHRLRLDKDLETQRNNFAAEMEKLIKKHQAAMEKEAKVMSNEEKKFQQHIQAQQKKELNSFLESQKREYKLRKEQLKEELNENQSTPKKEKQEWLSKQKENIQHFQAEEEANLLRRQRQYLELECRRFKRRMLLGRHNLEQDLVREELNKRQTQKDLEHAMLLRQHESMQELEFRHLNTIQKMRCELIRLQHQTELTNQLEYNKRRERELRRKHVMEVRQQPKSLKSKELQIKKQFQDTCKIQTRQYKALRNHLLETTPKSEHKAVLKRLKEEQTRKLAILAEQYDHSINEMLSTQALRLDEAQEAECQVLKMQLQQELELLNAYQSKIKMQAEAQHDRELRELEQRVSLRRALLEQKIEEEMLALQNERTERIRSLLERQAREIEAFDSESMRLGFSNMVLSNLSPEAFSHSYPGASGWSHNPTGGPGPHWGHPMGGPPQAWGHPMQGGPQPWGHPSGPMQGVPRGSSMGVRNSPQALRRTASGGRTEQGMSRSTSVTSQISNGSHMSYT

[24] = molecular target: Testis-specific serine/threonine-protein kinase 2 (Homo sapiens) (UniProt Q96PF2); test: TSSK2(h) Millipore kinase panel; conditions: Compound concentration 1.0 uM
[25] = molecular target: Wee1-like protein kinase (Homo sapiens) (UniProt P30291); test: WEE1(h) Millipore kinase panel; conditions: Compound concentration 1.0 uM
[26] = molecular target: Serine/threonine-protein kinase WNK2 (Homo sapiens) (UniProt Q9Y3S1); test: WNK2(h) Millipore kinase panel; conditions: Compound concentration 1.0 uM
[27] = molecular target: Tyrosine-protein kinase Yes (Homo sapiens) (UniProt P07947); test: Yes(h) Millipore kinase panel; conditions: Compound concentration 1.0 uM
[28] = molecular target: CDK18/Cyclin Y (Homo sapiens) (UniProt Q07002+Q8ND76); test: CDK18/cyclinY(h) Millipore kinase panel; format: protein-complex assay; conditions: Compound concentration 1.0 uM
[29] = molecular target: Cyclin-dependent kinase 13/Cyclin-K (Homo sapiens) (UniProt Q14004+O75909); test: CDK13/cyclinK(h) Millipore kinase panel; format: protein-complex assay; conditions: Compound concentration 1.0 uM
[30] = molecular target: CDK17/Cyclin-Y (Homo sapiens) (UniProt Q00537+Q8ND76); test: CDK17/cyclinY(h) Millipore kinase panel; format: protein-complex assay; conditions: Compound concentration 1.0 uM
Sequence of CDK17/Cyclin-Y (Homo sapiens) (Q00537 whole entry): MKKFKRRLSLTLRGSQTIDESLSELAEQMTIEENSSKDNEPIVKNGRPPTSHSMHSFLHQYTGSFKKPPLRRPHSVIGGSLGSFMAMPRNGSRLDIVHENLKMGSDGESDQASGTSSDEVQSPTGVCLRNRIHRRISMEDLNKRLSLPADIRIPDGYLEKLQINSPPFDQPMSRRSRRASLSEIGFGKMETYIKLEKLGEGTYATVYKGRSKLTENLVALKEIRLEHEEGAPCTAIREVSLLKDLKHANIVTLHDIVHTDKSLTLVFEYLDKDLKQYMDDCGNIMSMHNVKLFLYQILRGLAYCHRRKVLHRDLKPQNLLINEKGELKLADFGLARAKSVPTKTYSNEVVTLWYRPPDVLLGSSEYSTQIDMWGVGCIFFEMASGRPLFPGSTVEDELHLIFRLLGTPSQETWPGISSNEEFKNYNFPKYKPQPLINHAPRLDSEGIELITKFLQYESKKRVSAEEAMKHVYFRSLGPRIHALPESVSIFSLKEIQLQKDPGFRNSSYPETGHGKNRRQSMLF
Sequence of CDK17/Cyclin-Y (Homo sapiens) (Q8ND76 2-341 partner limits assumed): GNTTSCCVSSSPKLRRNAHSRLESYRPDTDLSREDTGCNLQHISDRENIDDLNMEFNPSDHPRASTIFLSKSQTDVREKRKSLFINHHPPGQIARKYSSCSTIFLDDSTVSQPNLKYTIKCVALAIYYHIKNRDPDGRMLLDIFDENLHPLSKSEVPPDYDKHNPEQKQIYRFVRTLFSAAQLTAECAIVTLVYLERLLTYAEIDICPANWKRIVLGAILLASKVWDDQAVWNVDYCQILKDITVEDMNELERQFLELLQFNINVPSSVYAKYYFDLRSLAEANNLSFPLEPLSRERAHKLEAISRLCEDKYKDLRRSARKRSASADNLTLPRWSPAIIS

[31] = molecular target: Polyunsaturated fatty acid lipoxygenase ALOX15 (Homo sapiens) (UniProt P16050); test: Inhibition of Lipoxygenase 15-LO at compound concentration of 10.0 uM in the Eurofins-Panlabs enzyme assay (Eurofins_assay_199017); conditions: Compound concentration 10.0 uM
[32] = molecular target: 5-hydroxytryptamine receptor 3A (Homo sapiens) (UniProt P46098); conditions: Compound concentration 10.0 uM
[33] = molecular target: D(4) dopamine receptor (Homo sapiens) (UniProt P21917); conditions: Compound concentration 10.0 uM
[34] = molecular target: Sodium-dependent noradrenaline transporter (Homo sapiens) (UniProt P23975); conditions: Compound concentration 10.0 uM
[35] = molecular target: Histamine H3 receptor (Homo sapiens) (UniProt Q9Y5N1); conditions: Compound concentration 10.0 uM
Sequence of Histamine H3 receptor (Homo sapiens) (Q9Y5N1 whole entry): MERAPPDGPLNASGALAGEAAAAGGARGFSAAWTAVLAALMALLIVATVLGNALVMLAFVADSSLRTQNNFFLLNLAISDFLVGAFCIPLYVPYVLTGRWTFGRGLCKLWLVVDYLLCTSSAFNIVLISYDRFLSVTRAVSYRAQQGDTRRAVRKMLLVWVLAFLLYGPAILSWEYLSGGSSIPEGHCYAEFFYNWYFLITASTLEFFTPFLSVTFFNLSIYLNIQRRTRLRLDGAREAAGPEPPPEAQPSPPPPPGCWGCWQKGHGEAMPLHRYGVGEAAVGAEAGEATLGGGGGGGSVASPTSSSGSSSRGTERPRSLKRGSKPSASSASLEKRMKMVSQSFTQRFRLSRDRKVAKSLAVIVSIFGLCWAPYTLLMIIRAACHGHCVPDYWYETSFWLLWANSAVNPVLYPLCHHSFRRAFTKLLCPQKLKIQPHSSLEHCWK

[36] = molecular target: Histamine H1 receptor (Homo sapiens) (UniProt P35367); conditions: Compound concentration 10.0 uM
[37] = molecular target: Muscarinic acetylcholine receptor M2 (Homo sapiens) (UniProt P08172); conditions: Compound concentration 10.0 uM
Sequence of Muscarinic acetylcholine receptor M2 (Homo sapiens) (P08172 whole entry): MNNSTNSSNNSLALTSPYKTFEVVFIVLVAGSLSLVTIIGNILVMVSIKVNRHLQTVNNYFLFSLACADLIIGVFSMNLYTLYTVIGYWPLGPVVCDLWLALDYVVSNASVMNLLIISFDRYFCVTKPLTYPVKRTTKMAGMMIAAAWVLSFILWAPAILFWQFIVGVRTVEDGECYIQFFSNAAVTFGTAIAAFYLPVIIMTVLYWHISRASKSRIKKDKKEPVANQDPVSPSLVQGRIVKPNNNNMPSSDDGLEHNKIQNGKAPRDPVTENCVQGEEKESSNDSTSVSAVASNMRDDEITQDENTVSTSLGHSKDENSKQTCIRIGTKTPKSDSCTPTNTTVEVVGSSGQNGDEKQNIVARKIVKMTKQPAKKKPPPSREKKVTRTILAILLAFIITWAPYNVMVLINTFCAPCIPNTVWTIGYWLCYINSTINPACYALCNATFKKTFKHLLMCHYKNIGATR

[38] = molecular target: Muscarinic acetylcholine receptor M3 (Homo sapiens) (UniProt P20309); conditions: Compound concentration 10.0 uM
[39] = molecular target: T1, Alpha-2B adrenergic receptor (Homo sapiens) (UniProt P18089); conditions: Compound concentration 10.0 uM
T1 sequence (whole entry): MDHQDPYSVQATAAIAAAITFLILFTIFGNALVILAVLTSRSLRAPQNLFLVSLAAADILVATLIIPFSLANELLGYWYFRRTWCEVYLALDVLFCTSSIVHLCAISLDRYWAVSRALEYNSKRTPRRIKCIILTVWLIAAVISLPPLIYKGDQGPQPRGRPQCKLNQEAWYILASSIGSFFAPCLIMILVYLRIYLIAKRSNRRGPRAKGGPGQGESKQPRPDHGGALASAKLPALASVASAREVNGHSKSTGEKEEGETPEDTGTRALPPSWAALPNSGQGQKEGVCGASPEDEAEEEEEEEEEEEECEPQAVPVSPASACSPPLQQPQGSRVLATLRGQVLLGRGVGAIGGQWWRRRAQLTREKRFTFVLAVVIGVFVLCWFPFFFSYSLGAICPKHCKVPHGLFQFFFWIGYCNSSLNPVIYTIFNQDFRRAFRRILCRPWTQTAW

[40] = molecular target: Vasopressin V1a receptor (Homo sapiens) (UniProt P37288); conditions: Compound concentration 10.0 uM
[41] = molecular target: Type-1 angiotensin II receptor (Homo sapiens) (UniProt P30556); conditions: Compound concentration 10.0 uM
Sequence of Type-1 angiotensin II receptor (Homo sapiens) (P30556 whole entry): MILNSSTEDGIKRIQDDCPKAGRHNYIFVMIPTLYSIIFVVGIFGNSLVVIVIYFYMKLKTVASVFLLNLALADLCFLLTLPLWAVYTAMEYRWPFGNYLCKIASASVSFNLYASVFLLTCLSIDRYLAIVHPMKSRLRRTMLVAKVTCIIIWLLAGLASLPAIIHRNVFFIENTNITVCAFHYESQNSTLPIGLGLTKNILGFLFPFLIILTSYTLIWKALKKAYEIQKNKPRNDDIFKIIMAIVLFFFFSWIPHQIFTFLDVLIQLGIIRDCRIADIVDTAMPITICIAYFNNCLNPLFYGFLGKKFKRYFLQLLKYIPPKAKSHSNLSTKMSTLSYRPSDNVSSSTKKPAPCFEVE

[42] = molecular target: Progesterone receptor (Homo sapiens) (UniProt P06401); conditions: Compound concentration 10.0 uM

`CC[C@@H](Nc1c(C#N)c(-c2ccc(-c3cccc(C)c3F)cc2)nc2cnccc12)C(=O)O` [BAY-091] gave a pKi [1] of 5.17, an inhibition [2] of 10.5% and an inhibition [3] of 7.75%. It also gave an inhibition [4] of 7.13%, an inhibition [5] of 12.4% and an inhibition [6] of 4.22%. It also gave an inhibition [7] of 9.2%, an inhibition [8] of -5.61% and an inhibition [9] of 13.3%. The inhibition [10] was 14.8%, the inhibition [11] was 4.24% and the inhibition [12] was 13.3%. It also gave an inhibition [13] of 12.8%, an inhibition [14] of -6% and an inhibition [15] of 10.4%. It also gave an inhibition [16] of -3.86%, an inhibition [17] of 5.85% and an inhibition [18] of -8.83%. It also gave an inhibition [19] of -3.58%, an inhibition [20] of -6.56% and an inhibition [21] of 3.01%. It also gave an inhibition [22] of 5.49%, an inhibition [23] of 1.92% and an inhibition [24] of -1.97%. For the same compound, the inhibition [25] was 5.28%, the inhibition [26] was 3.31% and the inhibition [27] was -3.76%. For the same compound, the inhibition [28] was 10.6%, the inhibition [29] was 1.16% and the inhibition [30] was 0.09%. It also gave an inhibition [31] of 20%, an inhibition [32] of 7.39% and an inhibition [33] of 2.8%. For the same compound, the inhibition [34] was -2.64%, the inhibition [35] was -3.06% and the inhibition [36] was 27%. It also gave an inhibition [37] of 8%, an inhibition [38] of 0% and an inhibition [39] of -2%. The inhibition [40] was -3%, the inhibition [41] was 22% and the inhibition [42] was 29%.
